The subject of experiment [1] is propionic acid kinase (PK). As to the kind of experiment: Comparative Example 1: measurement using propionic acid kinase, reaction recovery rate. It counts as biochemical. The note with it: 5 mM substrate. How it is done: (§1) It was examined whether butyric acid could be measured by using acetate kinase (AK) or propionic acid kinase (PK) instead of butyrate kinase. For comparison, measurement using BKIII was also performed.
(§2) Neutralized 100 mM acetic acid, butyric acid, and isobutyric acid were mixed with physiological saline to prepare a 5 mM acetic acid aqueous solution, a 5 mM butyric acid aqueous solution, and a 5 mM isobutyric acid aqueous solution, respectively.
(§3) The composition of the first reagent was the same as that of the first reagent used for examining the substrate specificity of Reference Example 7.
(§4) AK (Sigma-Aldrich Co. LLC., derived from E. coli), PK (MyBioSource, recombinant protein) and BKIII were added to 100 mM Tris-HCl (pH 7.5) (Sigma-Aldrich Co. LLC.), respectively, to prepare an enzyme solution containing each enzyme at a concentration of 1.25 to 40 U/mL.
(§5) The measurement was performed using a 7180 type Hitachi automatic analyzer (Hitachi High-Tech Corporation). The measurement parameters of the automatic analyzer were the same as in Example 2.
(§6) In the same manner as in Example 2, butyric acid and isobutyric acid in the sample were measured by the automatic analyzer. The reaction recovery rate (%) was calculated by dividing the measured value by the theoretical absorbance value. The theoretical absorbance is the absorbance when all the substrate (butyric acid or isobutyric acid) in the sample is converted to NADPH, and is calculated by the following formula. […] (Theoretical absorbance)= (substrate concentration in sample)×[(sample volume)/(sample volume+ first reagent amount+second reagent amount)]×(NADPH millimole molecular extinction coefficient at 340 nm)= 5×[3.5/(3.5+140+35)]×6.3= 0.617

The subject of experiment [2] is acetate-CoA transferase (EC 2.8.3.8). As to the kind of experiment: Comparative Example 2: measurement using acetate-CoA transferase, reaction recovery rate. The note with it: 30 μg/mL acetate-CoA transferase in second reagent; 5 mM substrate. It counts as biochemical, E. coli. An excerpt: Acetate-CoA transferase (EC 2.8.3.8) has been reported to catalyze the reaction represented by the following formula (9) (EC 2.8.3.8 in the Enzyme nomenclature database on the ExPASy-SIB Bioinformatics Resource Portal).). It was examined whether butyric acid could be measured by the reaction of formula (10), which is the reverse reaction of formula (9), using acetate-CoA transferase instead of butyrate kinase The acetic acid produced by the formula (10) by acetate-CoA transferase was confirmed by the reaction with AK of Comparative Example 1. The measurement was performed using a 7180 type Hitachi automatic analyzer (Hitachi High-Tech Corporation). [Chemical formula 7] Acyl-CoA+acetic acid ? fatty acid+acetyl-CoA (9) Butyric acid+acetyl-CoA→butyrate-CoA+acetic acid (10)
The 5 mM butyric acid and 5 mM isobutyric acid aqueous solution used in Comparative Example 1 were used. […]
In the same manner as in Example 2, butyric acid and isobutyric acid in the sample were measured by the automatic analyzer. The reaction recovery rate (%) was calculated by dividing the measured value by the theoretical absorbance value of Comparative Example 1.

Experiment [3] relates to BKIII (recombinant butyrate kinase derived from Thermosediminibacter oceani). Description: Substrate specificity of butyrate kinase BKIII. It counts as biochemical. The note with it: 100 mM sodium salt of fatty acid in second reagent, pH 7.5. As for the experimental part: (§7) Various fatty acids shown in Table 1 were used as a substrate. The measurement was performed using a 7180 type Hitachi automatic analyzer (Hitachi High-Tech Corporation). […] PHARMA CORPORATION) • 5 U/mL ADP-HK II (ADP dependent hexokinase: […] PHARMA CORPORATION) […] In the composition of the second reagent, “sodium salts of various fatty acids” means any one kind of sodium caprylate, sodium caproate, sodium valerate, sodium isovalerate, sodium butyrate, sodium isobutyrate, sodium propionate, sodium acetate, sodium lactate, and sodium succinate. Isobutyric acid, valeric acid, isovaleric acid, caproic acid, and octanoic acid, which are commercially available fatty acids and are not sold as sodium salts, were adjusted to pH 7.5 with sodium hydroxide. […] [Measurement Parameters of Automatic Analyzer] • Analysis method: […]

The target of the next experiment is T1, acetate kinase (AK) (Escherichia coli, UniProt P0A6A3).
T1 construct: purchased Sigma-Aldrich Co. LLC
T1 sequence (P0A6A3 whole entry): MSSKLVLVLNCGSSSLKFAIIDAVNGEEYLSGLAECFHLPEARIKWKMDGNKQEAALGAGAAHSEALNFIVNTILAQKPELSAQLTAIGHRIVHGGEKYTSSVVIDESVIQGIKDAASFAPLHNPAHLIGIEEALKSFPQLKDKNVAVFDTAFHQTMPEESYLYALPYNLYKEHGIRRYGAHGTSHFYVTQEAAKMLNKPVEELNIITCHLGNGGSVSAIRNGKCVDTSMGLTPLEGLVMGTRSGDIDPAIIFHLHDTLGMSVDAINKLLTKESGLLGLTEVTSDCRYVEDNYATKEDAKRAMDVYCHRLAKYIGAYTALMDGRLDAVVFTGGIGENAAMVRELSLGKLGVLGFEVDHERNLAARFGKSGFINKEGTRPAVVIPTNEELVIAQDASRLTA
As to the kind of experiment: Comparative Example 1: measurement using acetate kinase, reaction recovery rate. It counts as biochemical, E. coli. The following applies: 5 mM substrate. As for the experimental part: as §1, §2, §3, §4, §5, §6

The test system of experiment [4] is BKII (recombinant butyrate kinase derived from Acetoanaerobium sticklandii). As to the kind of experiment: Substrate specificity of butyrate kinase BKII. It counts as biochemical. The note with it: 100 mM sodium salt of fatty acid in second reagent, pH 7.5. How it is done:
as §7

For experiment [5], the system named is butyrate-acetoacetate-CoA transferase (EC 2.8.3.9). Description: Comparative Example 3: measurement using butyrate-acetoacetate-CoA transferase, reaction recovery rate. It counts as biochemical, E. coli. The following applies: 60 μg/mL butyrate-acetoacetate-CoA transferase in second reagent; 5 mM substrate. How it is done: It was examined whether acetic acid and butyric acid could be measured by the reaction of formula (12), which is the reverse reaction of the formula (11), using butyrate-[…] transferase instead of butyrate kinase. […] The measurement was performed using a 7180 type Hitachi automatic analyzer (Hitachi High-Tech Corporation). […] LLC.) • 0.35 mM Acetoacetyl-CoA (Sigma-Aldrich Co. LLC.) • 2 mM MgCl2 (FUJIFILM Wako Pure Chemical Corporation) • 0.25 mM β-NADH (Oriental Yeast Co., Ltd.) • 5 U/mL 3-hydroxybutyrate dehydrogenase (FUJIFILM Wako Pure Chemical Corporation) […] LLC.) The measurement was performed using a 7180 type Hitachi automatic analyzer (Hitachi High-Tech Corporation). The measurement parameters of the automatic analyzer were the same as in Example 2.

The subject of another experiment is BKIII. Description: Comparative Example 1: measurement using BKIII, reaction recovery rate. It counts as biochemical, Thermosediminibacter oceani. The note with it: 5 mM substrate. How it is done: as §1, §2, §3, §4, §5, §6
[6] abbreviates: PK activity value in reaction mixed solution 0.3 U/mL.
Setting [7] is: PK activity value in reaction mixed solution 0.5 U/mL.
Setting [8] is: PK activity value in reaction mixed solution 1.0 U/mL.
Where [9] appears, read: PK activity value in reaction mixed solution 2.0 U/mL.
Setting [10] is: PK activity value in reaction mixed solution 4.0 U/mL.
Where [11] appears, read: PK activity value in reaction mixed solution 8.0 U/mL.
[12] abbreviates: AK activity value in reaction mixed solution 0.3 U/mL.
The mark [13] stands for this setting: AK activity value in reaction mixed solution 0.5 U/mL.
Where [14] appears, read: AK activity value in reaction mixed solution 1.0 U/mL.
[15] abbreviates: AK activity value in reaction mixed solution 2.0 U/mL.
Setting [16] is: AK activity value in reaction mixed solution 4.0 U/mL.
Where [17] appears, read: AK activity value in reaction mixed solution 8.0 U/mL.
Setting [18] is: BKIII activity value in reaction mixed solution 0.3 U/mL.
Where [19] appears, read: BKIII activity value in reaction mixed solution 0.5 U/mL.
Where [20] appears, read: BKIII activity value in reaction mixed solution 1.0 U/mL.
The mark [21] stands for this setting: BKIII activity value in reaction mixed solution 2.0 U/mL.
[22] abbreviates: BKIII activity value in reaction mixed solution 4.0 U/mL.
Setting [23] is: BKIII activity value in reaction mixed solution 8.0 U/mL.

Take `CCCC(=O)O` [Butyric acid]: the reaction recovery rate stood at 0% in experiment [1] (setting [6]); 0% in experiment [1] (setting [7]); 0% in experiment [1] (setting [8]); 2% in experiment [1] (setting [9]); 4% in experiment [1] (setting [10]); 8% in experiment [1] (setting [11]). Also, the reaction recovery rate at acetate kinase (AK) (setting [12]), on acetate kinase (AK) (setting [13]), at acetate kinase (AK) (setting [14]), at acetate kinase (AK) (setting [15]), at acetate kinase (AK) (setting [16]) and on acetate kinase (AK) (setting [17]) was 0% each time. The reaction recovery rate in the experiment with BKIII (setting [18]) came to 36%; with BKIII (setting [19]), 53%; in the experiment on BKIII (setting [20]), 70%; in the experiment on BKIII (setting [21]), 84%; with BKIII (setting [22]), 93%; in the experiment with BKIII (setting [23]), 98%. Moreover, the “Reaction recovery rate (%)” value in experiment [2] came to 3%; in experiment [5] it was 2%. Besides, the “substrate specificity, relative value when the activity value with respect to butyric acid is 100” value (“substrate specificity, relative value” below) in experiment [3] and in experiment [4] was 100% throughout.
On to `CC(=O)O` [Acetic acid], for which the reaction recovery rate in experiment [1] (setting [6]) was 0%; in experiment [1] (setting [7]) it was 2%; in experiment [1] (setting [8]), 3%; in experiment [1] (setting [9]), 9%; in experiment [1] (setting [10]), 21%; in experiment [1] (setting [11]), 39%. Also, the reaction recovery rate is on record as 16% at acetate kinase (AK) (setting [12]); 28% on acetate kinase (AK) (setting [13]); 44% at acetate kinase (AK) (setting [14]); 62% at acetate kinase (AK) (setting [15]); 78% on acetate kinase (AK) (setting [16]); 88% on acetate kinase (AK) (setting [17]). Also, the reaction recovery rate in the experiment with BKIII (setting [18]) stood at 0%; in the experiment with BKIII (setting [19]), 0%; in the experiment on BKIII (setting [20]) it was 0%; in the experiment on BKIII (setting [21]), 0%; in the experiment on BKIII (setting [22]), 1%; with BKIII (setting [23]) it was 2%. In addition, the “substrate specificity, relative value” value in experiment [3] and in experiment [4] was 1% throughout. The “Reaction recovery rate (%)” value in experiment [5] came out at 1%.
Consider `CC(C)C(=O)O` [Isobutyric acid], for which the reaction recovery rate in experiment [1] (setting [6]), in experiment [1] (setting [7]), in experiment [1] (setting [8]), in experiment [1] (setting [9]), in experiment [1] (setting [10]) and in experiment [1] (setting [11]) was 0% in each case. Besides, the reaction recovery rate at acetate kinase (AK) (setting [12]), on acetate kinase (AK) (setting [13]), on acetate kinase (AK) (setting [14]), on acetate kinase (AK) (setting [15]), on acetate kinase (AK) (setting [16]) and at acetate kinase (AK) (setting [17]) was 0% in each case. In addition, the reaction recovery rate amounted to 40% with BKIII (setting [18]); 55% in the experiment on BKIII (setting [19]); 70% in the experiment with BKIII (setting [20]); 83% in the experiment on BKIII (setting [21]); 91% with BKIII (setting [22]); 96% in the experiment with BKIII (setting [23]). Moreover, the figures for the “Reaction recovery rate (%)” value in experiment [2] and in experiment [5] were 4% and 2%, respectively. Moreover, the “substrate specificity, relative value” value in experiment [3] came out at 80%; in experiment [4], 84%.

These data come from patent US11773379B2, “Enzymes and reagents for measurement of short chain fatty acids” (SYSMEX CORPORATION, priority 2018, dated 2023).
